Experimental data reported in patent US20090221666A1, “STILBENE DERIVATIVES AND METHODS OF INHIBITING CANCER CELL GROWTH AND MICROBIAL GROWTH” (priority 2005, published 2009).
Values after ≈ are worked out from the molar mass of the structure shown. Like-named read-outs stand apart in the source and are kept apart here.

Tests used:
[1] = Solubility in distilled water; format: physicochemical
NCI-H460 = test: cells; format: cell-based, human
Description: (§1) Cytotoxicity assays were performed by the sulforhodamine B method, in which inhibition of formation of cellular protein is measured (Ref. 42). The mitotic index of MCF-7 breast cancer cells was determined as described previously (Ref. 27), except that cells were incubated in the presence of drug for 16 h prior to addition of the DNA stain.

MCF-7 = test: cells; format: cell-based, human
Description: as §1

SF-295 = test: cells; format: cell-based, human
Description: as §1

DU145 = test: cells; format: cell-based, human
Description: as §1

KM20L2 = test: cells; format: cell-based, human
Description: as §1

[2] = test system: Neisseria gonorrhoeae ATCC 49226; test: Broth microdilution assay, Neisseria gonorrhoeae; format: cell-based
Source text: (§2) Compounds were screened in broth microdilution assays according to National Committee for Clinical Laboratory Standards (Ref. 43-44). Assays were repeated at least twice on separate days.

[3] = test system: P388 lymphocytic leukemia cell line; format: cell-based; conditions: murine P388 lymphocytic leukemia cell line
Description: as §1

BXPC-3 = test: cells; format: cell-based, human
Description: as §1

[4] = test system: human cancer cell lines and murine P388; test: cells; format: cell-based; conditions: for IC50: Mus musculus
Description: as §1

[5] = test system: Enterococcus faecalis ATCC 29212; test: Broth microdilution assay, Enterococcus faecalis; format: cell-based
Source text: as §2

[6] = test system: Bovine brain tubulin (vinca domain); test: Inhibition of [3H]vinblastine binding to tubulin; conditions: 5.0 μM tubulin, 5 μM [3H]vinblastine
Description: (§3) Bovine brain tubulin was prepared and the tubulin assembly and colchicine binding assays were performed as described previously. In the assembly assay, reaction mixtures contained 1.0 mg/mL (10 μM) tubulin and varying concentrations of potential inhibitors. In the colchicine binding assay reaction mixtures contained 0.1 mg/mL (1.0 μM) tubulin, 5.0 μM [^3H]colchicine, and potential inhibitor as indicated. The vinblastine binding assay was performed as described previously for GTP binding by centrifugal gel filtration, except that a Beckman Allegra 6KR centrifuge equipped with a GH-3.8A swinging bucket rotor was used and the syringe-columns were centrifuged at 2,000 rpm (Ref. 38-41). Reaction mixtures contained 0.5 mg/mL (5.0 μM) tubulin, 5 μM [^3H]vinblastine, potential inhibitor as indicated, 0.5 mM MgCl2, 0.1 M 4-morpholineethanesulfonate (1.0 M stock solution adjusted to pH 6.9 with NaOH, and 4% (v/v) dimethyl sulfoxide. Incubation (30 min) and centrifugal gel filtration were performed at room temperature (20-22° C.).

[7] = test system: Bovine brain tubulin (colchicine site); test: Inhibition of [3H]colchicine binding to tubulin; conditions: 1.0 μM tubulin, 5.0 μM [3H]colchicine
Description: as §3

Compound | Lung-NSC NCI-H460 GI50 (NCI-H460) [µg/mL] | Breast MCF-7 GI50 (MCF-7) [µg/mL] | CNS SF-295 GI50 (SF-295) [µg/mL] | Prostate DU145 GI50 (DU145) [µg/mL] | Colon KM20L2 GI50 (KM20L2) [µg/mL] | Leukemia P388 ED50 [3] [µg/mL] | Inhibition of vinblastine binding % Inhibition ± SD ([6]; 10 μM inhibitor) [%] | further results
Sodium 3,4-methylenedioxy-5,4′-dimethoxy-3′-(L-Tyr)-amido-Z-stilbene 3′-O,N^α-diphosphate [Compound 6] | >1 | 1.3 | >1 | >1 | >1 | 0.270 |  | Solubility ([1]; 1 mL distilled water at 25° C.): <100 µg/mL; water solubility (in words) ([1]; water): only sparing water solubility; MIC [2]: 4 µg/mL
COc1ccc(/C=C\c2cc(OC)c3c(c2)OCO3)cc1NC(=O)[C@H](CC(=O)OC(C)(C)C)NC(=O)OC(C)(C)C [Compound 10, 3,4-Methylenedioxy-5,4′-dimethoxy-3′-(O^β-tert-butyl-N^α-Boc-L-Asp)-amido-Z-stilbene] |  |  |  |  |  | 0.385 |  | GI50 (NCI-H460; Homo sapiens, read-out: Lung-NSC NCI-H460 GI50): 3.8 µg/mL (≈ 6.66 µM); GI50 (MCF-7; Homo sapiens, MCF7, read-out: Breast MCF-7 GI50): 2.4 µg/mL (≈ 4.21 µM); GI50 (SF-295; Homo sapiens, read-out: CNS SF-295 GI50): 1.7 µg/mL (≈ 2.98 µM); GI50 (BXPC-3; Homo sapiens, read-out: Pancreas BXPC-3 GI50): 3.4 µg/mL (≈ 5.96 µM); GI50 (DU145; Homo sapiens, DU-145, read-out: Prostate DU145 GI50): 3 µg/mL (≈ 5.26 µM); GI50 (KM20L2; Homo sapiens, KM-20L2, read-out: Colon KM20L2 GI50): 2.3 µg/mL (≈ 4.03 µM); IC50 ([4]; P388, mean over the cell lines of Table 2, read-out: Mean): 2.4 µg/mL (≈ 4.21 µM)
COc1ccc(/C=C\c2cc(OC)c3c(c2)OCO3)cc1NC(=O)[C@H](Cc1ccc(OP(=O)(OCc2ccccc2)OCc2ccccc2)cc1)NC(=O)OCc1ccccc1 [Compound 8, 3,4-Methylenedioxy-5,4′-dimethoxy-3′-(O-bis-benzylphosphoryl-N^α-Z-L-Tyr)-amido-Z-stilbene] | >10 | >10 | >10 | >10 | >10 | 0.133 |  | Pancreas BXPC-3 GI50 (BXPC-3): >10 µg/mL; MIC [5]: 64 µg/mL (≈ 74.7 µM)
COc1ccc(/C=C\c2cc(OC)c3c(c2)OCO3)cc1NC(=O)[C@H](Cc1ccc(OP(=O)(OCc2ccccc2)OCc2ccccc2)cc1)NP(=O)(OCc1ccccc1)OCc1ccccc1 [Compound 5, 3,4-Methylenedioxy-5,4′-dimethoxy-3′-[O,N^α-di(bis-benzylphosphoryl)-L-Tyr]-amido-Z-stilbene] |  |  |  |  |  | >10 |  | 
COc1ccc(/C=C\c2cc(OC)c3c(c2)OCO3)cc1N [Compound 1a, 3,4-Methylenedioxy-5,4^1-Dimethoxy-3^1-Amino-Z-Stilbene, reference compound] |  |  |  |  |  |  |  | IC50 ([4]; P388, read-out: Mean): 0.013 µg/mL (≈ 0.0434 µM)
CC[C@H](C)[C@@H]([C@@H](CC(=O)N1CCC[C@H]1[C@H](OC)[C@@H](C)C(=O)O)OC)N(C)C(=O)[C@@H](NC(=O)[C@H](C(C)C)N(C)C)C(C)C [Compound 4b, Dov-Val-Dil-Dap] |  |  |  |  |  |  | 16 ± 6 | Inhibition of vinblastine binding % Inhibition ± SD ([6]; 80 μM inhibitor): 68 ± 0.4%; Inhibition of colchicine binding % Inhibition ± SD ([7]; 50 μM inhibitor): 5.2 ± 3%
COc1ccc(C=Cc2cc(OC)c3c(c2)OCO3)cc1N [Compound 1b] |  |  |  |  |  |  | 0 | Inhibition of vinblastine binding % Inhibition ± SD ([6]; 80 μM inhibitor): 0%; Inhibition of colchicine binding % Inhibition ± SD ([7]; 2 μM inhibitor): 85 ± 3%
CC[C@H](C)[C@@H]([C@@H](CC(=O)N1CCC[C@H]1[C@H](OC)[C@@H](C)C(=O)N[C@@H](Cc1ccccc1)c1nccs1)OC)N(C)C(=O)[C@@H](NC(=O)[C@H](C(C)C)N(C)C)C(C)C [Compound 4a, Dolastatin 10] |  |  |  |  |  |  | 96 ± 0.7 | Inhibition of colchicine binding % Inhibition ± SD ([7]; 2 μM inhibitor): 13 ± 5%
COc1ccc(/C=C\c2cc(OC)c3c(c2)OCO3)cc1NC(=O)[C@H](Cc1ccc(OC(C)(C)C)cc1)NC(=O)OCc1ccccc1 [Compound 7, 3,4-Methylenedioxy-5,4′-dimethoxy-3′-(O-tert-butyl-N^α-Z-L-Tyr)-amido-Z-stilbene] | 0.41 | 0.36 | 0.44 | 0.39 | 1.8 | 0.380 |  | Pancreas BXPC-3 GI50 (BXPC-3): 0.049 µg/mL; Mean ([4]; mean over the cell lines of Table 2): 0.61 µg/mL
